The source made the active and inactive calls. The rule behind the calls is not given here. Where a SMILES comes first, the peptide text is derived from it. The star is where a group is joined. Stearoyl = CCCCCCCCCCCCCCCCCC(=O)*

The term EC50 denotes the concentration that produces a half-maximal response.

Data set [1] deals with Substance-P receptor (Homo sapiens) (UniProt P25103). As to the kind of experiment: Binding affinity to NK1R (unknown origin) expressed in HEK293 cells assessed as reduction in cell viability in presence of p53 plasmid at N/P ratio of 1 incubated for 96 hrs by MTT assay relative to control. Type of data set: cell-based.
Sequence of Substance-P receptor (Homo sapiens) (P25103 whole entry): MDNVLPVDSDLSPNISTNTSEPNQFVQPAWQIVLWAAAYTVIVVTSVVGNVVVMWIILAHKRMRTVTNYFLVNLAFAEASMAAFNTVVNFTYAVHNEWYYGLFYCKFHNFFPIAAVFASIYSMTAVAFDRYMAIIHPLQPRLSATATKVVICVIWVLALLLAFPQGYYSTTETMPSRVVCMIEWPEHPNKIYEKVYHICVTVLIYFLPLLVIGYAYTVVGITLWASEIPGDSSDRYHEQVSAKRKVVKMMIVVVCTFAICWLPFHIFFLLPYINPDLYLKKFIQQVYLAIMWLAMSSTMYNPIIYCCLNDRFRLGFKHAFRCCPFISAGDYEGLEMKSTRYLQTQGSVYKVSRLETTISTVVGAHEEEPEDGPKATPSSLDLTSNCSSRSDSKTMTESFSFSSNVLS
Data set [2] concerns HEK293. In words: Cytotoxicity against HEK293 cells assessed as reduction in cell viability incubated for 96 hrs by MTT assay. The conditions noted are these: Homo sapiens, HEK293, 96 h. Type of data set: cell-based. Background: Formazan colour is commonly taken as a measure of viable cells.
Data set [3] in a line: Drug uptake in HEK293 cells at 1 uM incubated for 1 hr by flow cytometry analysis. The format is ADME, cell-based. Particulars: human, hek293, 1 h.
Data set [4] is described as follows: Drug uptake in HEK293 cells at 1 uM incubated for 1 hr by confocal microscopy analysis. Type of data set: ADME, cell-based. The conditions noted are these: human, hek293, 1 h.
Data set [5] relates to HEK293. In words: Activation of luciferase (unknown origin) expressed in HEK293 cells in presence of pGL3 plasmid incubated for 30 mins by luciferase reporter gene assay. Type of data set: cell-based. Background: A reporter such as luciferase makes a cellular process visible.
Data set [6] addresses Substance-P receptor (Homo sapiens) (UniProt P25103). In words: Binding affinity to NK1R (unknown origin) expressed in HEK293 cells assessed as reduction in cell viability in presence of p53 plasmid at N/P ratio of 2 incubated for 96 hrs by MTT assay relative to control. The format is cell-based.
The target is the same in data set [7]. As to the kind of experiment: Binding affinity to NK1R (unknown origin) expressed in HEK293 cells assessed as reduction in cell viability in presence of p53 plasmid at N/P ratio of 3 incubated for 96 hrs by MTT assay relative to control. Type of data set: cell-based.
Data set [8] concerns HEK293. As to the kind of experiment: Cytotoxicity against HEK293 cells assessed as reduction in cell viability in presence of p53 plasmid at N/P ratio of 0.5 to 3 incubated for 96 hrs by MTT assay. Type of data set: cell-based. The conditions noted are these: human, hek293, 96 h.
The target in data set [9] is Substance-P receptor (Homo sapiens) (UniProt P25103). As to the kind of experiment: Binding affinity to NK1R (unknown origin) expressed in HEK293 cells assessed as reduction in cell viability in presence of p53 plasmid at N/P ratio of 0.5 to 3 incubated for 96 hrs by MTT assay. Type of data set: cell-based.

Regarding `CCCCCCCCCCCCCCCCCC(=O)N[C@@H](CCCCN)C(=O)N[C@@H](Cc1c[nH]c2ccccc12)C(=O)N[C@@H](CCCCN)C(=O)N[C@@H](CC(C)C)C(=O)N[C@@H](CCC(=O)O)C(=O)N[C@@H](CCCCN)C(=O)N[C@@H](CCCCN)C(=O)N[C@H](C(=O)NCC(=O)N[C@@H](C)C(=O)N[C@H](C(=O)N[C@@H](CC(C)C)C(=O)N[C@H](C(=O)N[C@@H](CS)C(=O)N[C@H](C(=O)N[C@@H](CC(C)C)C(=O)N[C@@H](CCCNC(=N)N)C(=O)N1CCC[C@H]1C(=O)N[C@@H](CCCCN)C(=O)N1CCC[C@H]1C(=O)N[C@@H](CCC(N)=O)C(=O)N[C@@H](CCC(N)=O)C(=O)N[C@@H](Cc1ccccc1)C(=O)N[C@@H](Cc1ccccc1)C(=O)NCC(=O)N[C@@H](CC(C)C)C(=O)N[C@@H](CCSC)C(N)=O)C(C)C)[C@@H](C)CC)C(C)C)[C@@H](C)CC` (Stearoyl-KWKLEKKIGAVLICVLRPKPQQFFGLM-NH2), the Activity is 51.6% in data set [1], 66.7% in data set [6], 70.2% in data set [7] and “Active” in the data set with HEK293 [8]. The EC50 in the data set on HEK293 [2] is 7.5 µM. Moreover, the Drug uptake entry in data set [3] and in data set [4] was “Active” throughout. In addition, the result with HEK293 [5] was inactive. The result in [9] was Active.
